This note sets out measurements from the supplement of paper PMC11208160.
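Also: IS621 recombinase and bridge RNA in Escherichia coli cells.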

A short description of the data set: recombinant barcode read abundance after kanamycin selection (control-corrected) (log10(CPM+1)); higher = more efficient recombination; sequences stand for … in AGTGCAGAGAAAATCGGCCAGTTTTCTCTGCCTGCAGTCCGCATGCCGT…AGATTTATGCAGCGGACTGCCTTTCTCCCAAAGTGATAAACCGGACAGTATCATGGACCGGTTTTCCCGGTAATCCGTATTTGCAAGGTTGGTTTCACT; site = the 11-nt target. In a few lines: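 Recombination efficiency draws on barcodes counted at recombinant junctions in a pooled E. coli screen of targets paired with IS621 bridge RNA target-binding loops. The counts were converted to counts per million, averaged and corrected against the chloramphenicol/ampicillin LB agar control, then reported as log10(CPM+1). Selection plates held chloramphenicol/ampicillin/kanamycin with 0.1 mM IPTG, with two replicates per condition.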
With “GTTGGGGCTTGGGTTCTAACCTGTTGCCT (site GTTGGGGCTAG)”, the “recombinant barcode read abundance (log10)” value was 0.634.

“GTTTAATCTTGGGTTCTAACCTGTTGCAT (site GTTTAATCTAT)”: the “recombinant barcode read abundance (log10)” value was 0.343.

For the sequence “GTTTAATCTTGGGTTCTAACCTGTTGCAT (site TGGGTCACTTA)”, the “recombinant barcode read abundance (log10)” value was 0.0197.

Take “GTTTGGACTTGGGTTCTAACCTGTTGCAG (site GCTTGGACTAT)”: the “recombinant barcode read abundance (log10)” value was 0.153.

As for “GTTTGGACTTGGGTTCTAACCTGTTGCAG (site GTTTGGACTCT)”, the “recombinant barcode read abundance (log10)” value was 1.11.

As to “GTTTGGACTTGGGTTCTAACCTGTTGCTG (site GTTTGGACTCA)”, the “recombinant barcode read abundance (log10)” value stood at 1.06.

For “GTTTGGACTTGGGTTCTAACCTGTTGCTG (site GTTTGGACTTA)”, the “recombinant barcode read abundance (log10)” value is 0.195.

Take “TAAAAGACTTGGGTTCTAACCTGTTGCCT (site TAAAAGACTAG)”: the “recombinant barcode read abundance (log10)” value came to 0.307.

For the sequence “TAAAAGACTTGGGTTCTAACCTGTTGCCT (site TAAAAGCCTAG)”, the “recombinant barcode read abundance (log10)” value amounted to 0.0498.

Turning to “TAAAAGACTTGGGTTCTAACCTGTTGCCT (site TAAAAGGCTAG)”, the “recombinant barcode read abundance (log10)” value stood at 0.311.

Turning to “TAAAAGACTTGGGTTCTAACCTGTTGCCT (site TAAAAGTCTAG)”, the “recombinant barcode read abundance (log10)” value amounted to 0.178.

On to “TAAAAGTCTTGGGTTCTAACCTGTTGCCT (site TAAAAGACTAG)”, for which the “recombinant barcode read abundance (log10)” value was found to be 0.108.

On to “TAAAAGTCTTGGGTTCTAACCTGTTGCCT (site TAAAAGCCTAG)”, for which the “recombinant barcode read abundance (log10)” value was determined as 0.0186.

As for “TAAAAGTCTTGGGTTCTAACCTGTTGCCT (site TAAAAGGCTAG)”, the “recombinant barcode read abundance (log10)” value was 0.0795.

Consider “TAAAAGTCTTGGGTTCTAACCTGTTGCCT (site TAAAAGTCTAG)”, for which the “recombinant barcode read abundance (log10)” value amounted to 0.696.

Turning to “TAAAGTACTTGGGTTCTAACCTGTTGCTT (site TAAAGTACTAA)”, the “recombinant barcode read abundance (log10)” value was 0.467.

Turning to “TAAAGTACTTGGGTTCTAACCTGTTGCTT (site TAACGTACTAA)”, the “recombinant barcode read abundance (log10)” value stood at 0.0583.

Regarding “TAAAGTACTTGGGTTCTAACCTGTTGCTT (site TAAGGTACTAA)”, the “recombinant barcode read abundance (log10)” value worked out at 0.017.

Regarding “TAAAGTACTTGGGTTCTAACCTGTTGCTT (site TAATGTACTAA)”, the “recombinant barcode read abundance (log10)” value was found to be 0.0546.

For “TAACACTCTTGGGTTCTAACCTGTTGCCT (site TAACACTCTAG)”, the “recombinant barcode read abundance (log10)” value is 2.

In the case of “TAACACTCTTGGGTTCTAACCTGTTGCCT (site TCACAGTCTAG)”, the “recombinant barcode read abundance (log10)” value is 0.19.

As to “TAACAGTCTTGGGTTCTAACCTGTTGCGT (site TAACAGTCTAC)”, the “recombinant barcode read abundance (log10)” value was 2.85.

Take “TAACAGTCTTGGGTTCTAACCTGTTGCGT (site TAACCGTCTAT)”: the “recombinant barcode read abundance (log10)” value worked out at 0.246.

“TAACCGTCTTGGGTTCTAACCTGTTGCAT (site TAACAGTCTAC)”: the “recombinant barcode read abundance (log10)” value was 0.179.

As for “TAACCGTCTTGGGTTCTAACCTGTTGCAT (site TAACCGTCTAT)”, the “recombinant barcode read abundance (log10)” value amounted to 0.286.

In the case of “TAACCTACTTGGGTTCTAACCTGTTGCCT (site TAACCTACTAG)”, the “recombinant barcode read abundance (log10)” value worked out at 0.442.

Regarding “TAACCTACTTGGGTTCTAACCTGTTGCCT (site TAACCTCCTAG)”, the “recombinant barcode read abundance (log10)” value amounted to 0.055.

With “TAACCTACTTGGGTTCTAACCTGTTGCCT (site TAACCTGCTAG)”, the “recombinant barcode read abundance (log10)” value came to 0.0455.

“TAACCTACTTGGGTTCTAACCTGTTGCCT (site TAACCTTCTAG)”: the “recombinant barcode read abundance (log10)” value is 0.0774.

Consider “TAACCTACTTGGGTTCTAACCTGTTGCTA (site GGTGAGGCTAT)”, for which the “recombinant barcode read abundance (log10)” value was determined as 0.0991.

As for “TAACCTACTTGGGTTCTAACCTGTTGCTA (site TAACCTACTTA)”, the “recombinant barcode read abundance (log10)” value amounted to 0.864.

For “TAACCTCCTTGGGTTCTAACCTGTTGCCT (site TAACCTACTAG)”, the “recombinant barcode read abundance (log10)” value is 0.0181.
